# Measurements taken from PubChem BioAssay (NCI).
#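 Growth conditions: 96-well plates. Treatment: test compound, 48 hours, 5 concentrations. Analysis: linear interpolation between bracketing concentrations; unreached endpoints set to highest concentration. GI50 = concentration required for 50% inhibition of growth. The concentration for full growth arrest is given as TGI.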
# Test system: SF-268 CNS
# Assay: NCI-60 cell line screen, 48 h
Structure (SMILES),TGI [µM],GI50 [µM]
COc1ccccc1/C=C/c1cnccn1,> 10,
CCCCCc1c(C)[nH]c(/C=C2\N=C(c3ccc[nH]3)C=C2CC)c1C,0.802,< 0.01
CC(C)(C)C(=O)/C=C/c1ccc(Oc2ccccc2)cc1,62.1,
CC1=C(C(=O)Nc2c(C)cccc2C)C(c2ccccc2Cl)C(C(=O)Nc2c(C)cccc2C)=C(C)N1,> 100,
Cc1cn2c(/C=C3/C(=O)Nc4ccccc43)c(-c3ccc(Cl)cc3)nc2s1,24.4,7.41
O=C1CSC(Cc2nc3ccccc3[nH]2)=N1,> 31.6,
COc1ccccc1NC(=O)C1=C(C)NC(C)=C(C(=O)Nc2ccccc2OC)C1c1ccc([N+](=O)[O-])cc1,> 100,
CCOC(=O)[C@H](CCCNC(=O)OC(C)(C)C)NCc1ccc(OC)c(OC)c1,> 100,
COC(COC(=O)N1CCN(C=O)CC1)C1=C(N2CC2)C(=O)C(C)=C(N2CC2)C1=O (configuration not stated),6.45,
O=C(N/N=C\c1cc(Br)ccc1O)c1ccncc1,> 100,1.4
O=C(/C=C/c1c(O)ccc2ccccc12)c1ccc2ccccc2c1,> 100,
OCCCCC#Cc1ccccc1C#Cc1cccc(O)c1,42.6,18.5
O=C(O)c1cccc(OCCO)c1,> 100,
O=[N+]([O-])c1ccc(-n2nnc(C3=NCCCN3)c2-c2ccc(Cl)cc2)cc1,> 100,
COC(=O)C12C3C4C5(C(=O)OC)C(C1C35C(=O)N(C(C)C)C(C)C)C42C(=O)N(C(C)C)C(C)C (configuration not stated),> 50,
N#CC(C#N)=c1[nH]c2cccc3c2-c2c(cccc2c3=C(C#N)C#N)[nH]1,> 100,
COC(=O)/C=C/C1C(C(=O)OC)C2(C(=O)OC)CCC1(C(=O)OC)N2 (configuration not stated),> 100,
N#CC(/C(=N/NC(=O)C(=O)NN)C(=O)NC12CC3CC(CC(C3)C1)C2)c1ccccc1 (configuration not stated),> 100,
CC(=O)OCC1OC([S-])C(OC(C)=O)C(OC(C)=O)C1OC(C)=O.CC[PH+](CC)CC.CC[PH+](CC)CC.[Au].[Au] (configuration not stated),0.669,0.207

Structure (SMILES),TGI [µM],GI50 [µM]
Cc1cc(C)n(CCNCCn2nc(C)cc2C)n1,> 100,
COc1cc2c(cc1OCc1ccccc1)CNCC2,> 100,
O=C(CN1CCCCC1)N1CCc2c([nH]c3ccccc23)C1c1cccnc1 (configuration not stated),> 100,
COc1cc2c(cc1OC)C13CCN4CC5=CCOC6CC(=O)N2C1C6C5CC43O (configuration not stated),> 100,
CCCCCCCCCc1cc(=O)c2c(O)cccc2o1,> 100,
O=C(C[n+]1ccccc1)NNC(=O)/C(=C/c1ccc2c(c1)OCO2)NC(=O)c1ccccc1,> 100,
O=S(O)CCCCSSCc1ccccc1CSSCCCCS(=O)O,39.3,
Clc1ccc(-c2c(C3=NCCN3)nnn2-c2ccc(Cl)cc2)cc1,> 100,
CC(C)(C)N1CC2(CCCCC2)C1=O,> 100,
O=C(CCC(=O)Nc1cccc(Cl)c1)CC(=O)c1ccc(Cl)cc1,> 100,
COc1ccc(C2C(C#N)=C(N)OC3=C2COc2ccc(F)cc23)cc1OC (configuration not stated),> 100,33.3
CCN(CC)CC(C)(C)C(=O)/C=C/c1ccc(Cl)c(Cl)c1,3.22,1.56
NC1CCCC[C@H]1N.N[C@@H]1CCCC[C@@H]1N.O=C(P(=O)([O-])[O-])P(=O)([O-])[O-].[Pt+4].[Pt+4],> 100,> 100
O=C(CSc1nnc(-c2ccccc2NC(=O)C(F)(F)F)c(=O)[nH]1)NC(=O)Nc1ccccc1,> 100,
O=C1c2ccn(CCCCNC(CO)(CO)CO)c2C(=O)c2c1c(O)c1ccccc1c2O,18.1,3.41
CCOC(=O)c1[nH]c(COC(C)=O)c(CCCOC(C)=O)c1CCCOC(C)=O,> 100,
CCN1C(=O)N(CC)C2C1NC(=S)N2/N=C/C=C/c1cccs1 (configuration not stated),> 100,1.47
COc1ccc(-c2cc(-c3cccn3C)c(C#N)c(N)n2)cc1OC,> 100,82.4
COc1ccc(C(=O)C(CO)Oc2ccccc2OC)cc1OC (configuration not stated),> 100,

# Test system: 786-0 renal
# Assay: NCI-60 cell line screen, 48 h
Structure (SMILES),TGI [µM],GI50 [µM]
COc1ccccc1/C=C/c1cnccn1,> 10,
CCCCCc1c(C)[nH]c(/C=C2\N=C(c3ccc[nH]3)C=C2CC)c1C,0.0352,< 0.01
CC(C)(C)C(=O)/C=C/c1ccc(Oc2ccccc2)cc1,40,
CC1=C(C(=O)Nc2c(C)cccc2C)C(c2ccccc2Cl)C(C(=O)Nc2c(C)cccc2C)=C(C)N1,> 100,
Cc1cn2c(/C=C3/C(=O)Nc4ccccc43)c(-c3ccc(Cl)cc3)nc2s1,13.6,7.08
O=C1CSC(Cc2nc3ccccc3[nH]2)=N1,32.6,
COc1ccccc1NC(=O)C1=C(C)NC(C)=C(C(=O)Nc2ccccc2OC)C1c1ccc([N+](=O)[O-])cc1,> 100,
CCOC(=O)[C@H](CCCNC(=O)OC(C)(C)C)NCc1ccc(OC)c(OC)c1,> 100,
COC(COC(=O)N1CCN(C=O)CC1)C1=C(N2CC2)C(=O)C(C)=C(N2CC2)C1=O (configuration not stated),0.43,
O=C(N/N=C\c1cc(Br)ccc1O)c1ccncc1,> 100,2.46
O=C(/C=C/c1c(O)ccc2ccccc12)c1ccc2ccccc2c1,> 100,
OCCCCC#Cc1ccccc1C#Cc1cccc(O)c1,29.2,13.8
O=C(O)c1cccc(OCCO)c1,> 100,
O=[N+]([O-])c1ccc(-n2nnc(C3=NCCCN3)c2-c2ccc(Cl)cc2)cc1,> 100,
COC(=O)C12C3C4C5(C(=O)OC)C(C1C35C(=O)N(C(C)C)C(C)C)C42C(=O)N(C(C)C)C(C)C (configuration not stated),> 50,
N#CC(C#N)=c1[nH]c2cccc3c2-c2c(cccc2c3=C(C#N)C#N)[nH]1,> 100,
COC(=O)/C=C/C1C(C(=O)OC)C2(C(=O)OC)CCC1(C(=O)OC)N2 (configuration not stated),> 100,
N#CC(/C(=N/NC(=O)C(=O)NN)C(=O)NC12CC3CC(CC(C3)C1)C2)c1ccccc1 (configuration not stated),> 100,
CC(=O)OCC1OC([S-])C(OC(C)=O)C(OC(C)=O)C1OC(C)=O.CC[PH+](CC)CC.CC[PH+](CC)CC.[Au].[Au] (configuration not stated),0.401,0.185
Cc1cc(C)n(CCNCCn2nc(C)cc2C)n1,> 100,
COc1cc2c(cc1OCc1ccccc1)CNCC2,> 100,

Structure (SMILES),TGI [µM],GI50 [µM]
O=C(CN1CCCCC1)N1CCc2c([nH]c3ccccc23)C1c1cccnc1 (configuration not stated),> 100,
COc1cc2c(cc1OC)C13CCN4CC5=CCOC6CC(=O)N2C1C6C5CC43O (configuration not stated),> 100,
CCCCCCCCCc1cc(=O)c2c(O)cccc2o1,> 100,
O=C(C[n+]1ccccc1)NNC(=O)/C(=C/c1ccc2c(c1)OCO2)NC(=O)c1ccccc1,> 90.7,
O=S(O)CCCCSSCc1ccccc1CSSCCCCS(=O)O,> 100,
Clc1ccc(-c2c(C3=NCCN3)nnn2-c2ccc(Cl)cc2)cc1,58.4,
CC(C)(C)N1CC2(CCCCC2)C1=O,> 100,
O=C(CCC(=O)Nc1cccc(Cl)c1)CC(=O)c1ccc(Cl)cc1,> 100,
O=C(CCCN1CC=C(n2c(=O)[nH]c3ccccc32)CC1)c1ccc(F)cc1,> 100,29.3
CC(=O)Oc1ccccc1C(=O)N=C1[Se]CCCN1C(=O)c1ccccc1OC(C)=O,4.21,2.14
CC(=O)c1c(CBr)n([O-])c2ccccc2[n+]1=O,17.7,5.59
COc1ccc(C2C(C#N)=C(N)OC3=C2COc2ccc(F)cc23)cc1OC (configuration not stated),> 100,25.6
CCN(CC)CC(C)(C)C(=O)/C=C/c1ccc(Cl)c(Cl)c1,3.04,1.62
NC1CCCC[C@H]1N.N[C@@H]1CCCC[C@@H]1N.O=C(P(=O)([O-])[O-])P(=O)([O-])[O-].[Pt+4].[Pt+4],> 100,> 100
O=C(CSc1nnc(-c2ccccc2NC(=O)C(F)(F)F)c(=O)[nH]1)NC(=O)Nc1ccccc1,> 100,
O=C1c2ccn(CCCCNC(CO)(CO)CO)c2C(=O)c2c1c(O)c1ccccc1c2O,6.05,2.29
CCOC(=O)c1[nH]c(COC(C)=O)c(CCCOC(C)=O)c1CCCOC(C)=O,> 100,
CCN1C(=O)N(CC)C2C1NC(=S)N2/N=C/C=C/c1cccs1 (configuration not stated),> 100,0.615
COc1ccc(-c2cc(-c3cccn3C)c(C#N)c(N)n2)cc1OC,> 100,> 100
COc1ccc(C(=O)C(CO)Oc2ccccc2OC)cc1OC (configuration not stated),> 100,

# Test system: SK-OV-3 ovarian
# Assay: NCI-60 cell line screen, 48 h
Structure (SMILES),TGI [µM],GI50 [µM]
COc1ccccc1/C=C/c1cnccn1,> 10,
CCCCCc1c(C)[nH]c(/C=C2\N=C(c3ccc[nH]3)C=C2CC)c1C,0.383,0.0609
